Source: PubChem BioAssay AID1963869 (Molecular Pharmacology Branch, DTP, NCI, 2024)

System: KRAS patient-derived spheroids with HUVEC/MSC, viability
Test: Anticancer human tumor 323965-272-R-J2-PDC patient-derived pancreatic carcinoma cell line growth inhibition [KRAS2]
Conditions: for IC50: curve of first compound; for viability, T/C: stronger effect = lower value; active = viability on the fitted dose curve at most 10% of control; inactive = the rest
Method in brief: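 KRAS-mutant tumor cells were grown as spheroids with HUVEC endothelial cells and human MSCs as stroma. Targeted agents were tested alone and with KRAS pathway inhibitors. Doses started at or near clinical Cmax, or 10 microM, descending half-log.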

[1] = second compound 0.1 µM, first compound 0.0316 µM
[2] = second compound 0.1 µM, first compound 0.1 µM
[3] = second compound 0.1 µM, first compound 0.316 µM
[4] = second compound 0.1 µM, first compound 1 µM
[5] = second compound 0.1 µM, first compound 3.16 µM
[6] = second compound 0.1 µM, first compound 10 µM
[7] = second compound 0.316 µM, first compound 0.0316 µM
[8] = second compound 0.316 µM, first compound 0.1 µM
[9] = second compound 0.316 µM, first compound 0.316 µM
[10] = second compound 0.316 µM, first compound 1 µM
[11] = second compound 0.316 µM, first compound 3.16 µM
[12] = second compound 0.316 µM, first compound 10 µM
[13] = second compound 1 µM, first compound 0.0316 µM
[14] = second compound 1 µM, first compound 0.1 µM
[15] = second compound 1 µM, first compound 0.316 µM
[16] = second compound 1 µM, first compound 1 µM
[17] = second compound 1 µM, first compound 3.16 µM
[18] = second compound 1 µM, first compound 10 µM
[19] = second compound 3.16 µM, first compound 0.0316 µM
[20] = second compound 3.16 µM, first compound 0.1 µM
[21] = second compound 3.16 µM, first compound 0.316 µM
[22] = second compound 3.16 µM, first compound 1 µM
[23] = second compound 3.16 µM, first compound 3.16 µM
[24] = second compound 3.16 µM, first compound 10 µM
[25] = second compound 10 µM, first compound 0.0316 µM
[26] = second compound 10 µM, first compound 0.1 µM
[27] = second compound 10 µM, first compound 0.316 µM
[28] = second compound 10 µM, first compound 1 µM
[29] = second compound 10 µM, first compound 3.16 µM
[30] = second compound 10 µM, first compound 10 µM
[31] = second compound 0.1 µM, first compound 0.00316 µM
[32] = second compound 0.1 µM, first compound 0.01 µM
[33] = second compound 0.316 µM, first compound 0.00316 µM
[34] = second compound 0.316 µM, first compound 0.01 µM
[35] = second compound 1 µM, first compound 0.00316 µM
[36] = second compound 1 µM, first compound 0.01 µM
[37] = second compound 3.16 µM, first compound 0.00316 µM
[38] = second compound 3.16 µM, first compound 0.01 µM
[39] = second compound 10 µM, first compound 0.00316 µM
[40] = second compound 10 µM, first compound 0.01 µM
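Note: spheroids exposed to agents for 7 days.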
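Throughout, for viability, T/C: 100% = DMSO vehicle control viability.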

CC1OCC2(CCN(c3cnc(Sc4ccnc(N)c4Cl)c(N)n3)CC2)C1N (stereo not given) + C=CC(=O)N1CCN(c2nc(=O)n(-c3c(C)ccnc3C(C)C)c3nc(-c4c(O)cccc4F)c(F)cc23)C(C)C1
inactive: viability, T/C [1] 41.2% | viability, T/C [2] 31.8% | viability, T/C [3] 25% | viability, T/C [4] 15.9% | viability, T/C [5] 11.1% | viability, T/C [6] 12% | viability, T/C [7] 39.1% | viability, T/C [8] 29.8% | viability, T/C [9] 22.5% | viability, T/C [10] 19% | viability, T/C [11] 10.7% | viability, T/C [12] 11.6% | viability, T/C [13] 46.9% | viability, T/C [14] 30.2% | viability, T/C [15] 24.1% | viability, T/C [16] 17.6% | viability, T/C [17] 15% | viability, T/C [18] 12.1% | viability, T/C [19] 45.2% | viability, T/C [20] 38.7% | viability, T/C [21] 26.9% | viability, T/C [22] 17.2% | viability, T/C [23] 15.8% | viability, T/C [24] 13% | viability, T/C [25] 33% | viability, T/C [26] 29.1% | viability, T/C [27] 19.4% | viability, T/C [28] 16.4% | viability, T/C [29] 11.5% | viability, T/C [30] 12.1%
< 31.6 nM: IC50 (second compound 0.1 µM) | IC50 (second compound 0.316 µM) | IC50 (second compound 1 µM) | IC50 (second compound 3.16 µM) | IC50 (second compound 10 µM)

CCN1CCN(Cc2ccc(Nc3ncc(F)c(-c4cc(F)c5nc(C)n(C(C)C)c5c4)n3)nc2)CC1 + CC1OCC2(CCN(c3cnc(Sc4ccnc(N)c4Cl)c(N)n3)CC2)C1N
< 3.16 nM: IC50 (second compound 1 µM) | IC50 (second compound 3.16 µM) | IC50 (second compound 10 µM)
14.6 nM: IC50 (second compound 0.316 µM)
inactive: viability, T/C [31] 72.6% | viability, T/C [32] 66.4% | viability, T/C [1] 45.8% | viability, T/C [2] 46.4% | viability, T/C [3] 42% | viability, T/C [4] 49.7% | viability, T/C [33] 51.3% | viability, T/C [34] 56.5% | viability, T/C [7] 42.1% | viability, T/C [8] 36.8% | viability, T/C [9] 35.5% | viability, T/C [10] 42.3% | viability, T/C [35] 38.5% | viability, T/C [36] 37.7% | viability, T/C [13] 26.2% | viability, T/C [14] 23.4% | viability, T/C [15] 26.1% | viability, T/C [16] 35.3% | viability, T/C [37] 18.8% | viability, T/C [38] 15.7% | viability, T/C [19] 14.9% | viability, T/C [20] 14.7% | viability, T/C [21] 17.9% | viability, T/C [22] 29.5% | viability, T/C [39] 13.7% | viability, T/C [40] 16.3% | viability, T/C [25] 13.9% | viability, T/C [26] 10.5% | viability, T/C [27] 14.5% | viability, T/C [28] 25.7%
25.2 nM: IC50 (second compound 0.1 µM)

CC(=O)OC12COC1CC(O)C1(C)C(=O)C(O)C3=C(C)C(OC(=O)C(O)C(NC(=O)OC(C)(C)C)c4ccccc4)CC(O)(C(OC(=O)c4ccccc4)C21)C3(C)C (stereo not given) + CNCc1ccccc1-c1csc(C(C)Nc2nc(C)nc3cc(OC)c(OC)cc23)c1
active: viability, T/C [38] 0.95% | viability, T/C [19] 26.9% | viability, T/C [20] 4.54% | viability, T/C [21] 0.8% | viability, T/C [22] 7.93% | viability, T/C [40] 0.72% | viability, T/C [25] 0.14% | viability, T/C [26] 0.36% | viability, T/C [27] 0.45% | viability, T/C [28] 0.41% | viability, T/C [29] 0.21%
< 10 nM: IC50 (second compound 0.1 µM) | IC50 (second compound 0.316 µM) | IC50 (second compound 1 µM) | IC50 (second compound 3.16 µM) | IC50 (second compound 10 µM)
inactive: viability, T/C [32] 29% | viability, T/C [1] 25.5% | viability, T/C [2] 24.1% | viability, T/C [3] 25.7% | viability, T/C [4] 26.5% | viability, T/C [5] 28.6% | viability, T/C [34] 23.3% | viability, T/C [7] 24.3% | viability, T/C [8] 21.9% | viability, T/C [9] 21.8% | viability, T/C [10] 23% | viability, T/C [11] 25.7% | viability, T/C [36] 27.5% | viability, T/C [13] 25.7% | viability, T/C [14] 28.4% | viability, T/C [15] 28.2% | viability, T/C [16] 32.7% | viability, T/C [17] 35.3% | viability, T/C [23] 30.4%

Cn1ncnc1[C@H]1c2n[nH]c(=O)c3cc(F)cc(c23)N[C@@H]1c1ccc(F)cc1 + CC1OCC2(CCN(c3cnc(Sc4ccnc(N)c4Cl)c(N)n3)CC2)C1N
> 100 nM: IC50 (second compound 0.1 µM)
< 0.316 nM: IC50 (second compound 1 µM) | IC50 (second compound 3.16 µM) | IC50 (second compound 10 µM)
inactive: viability, T/C (second compound 0.1 µM, first compound 0.000316 µM) 80.9% | viability, T/C (second compound 0.1 µM, first compound 0.001 µM) 82.9% | viability, T/C [31] 82.9% | viability, T/C [32] 79.7% | viability, T/C [1] 76.2% | viability, T/C [2] 62% | viability, T/C (second compound 0.316 µM, first compound 0.000316 µM) 57.5% | viability, T/C (second compound 0.316 µM, first compound 0.001 µM) 62.5% | viability, T/C [33] 55.2% | viability, T/C [34] 53.6% | viability, T/C [7] 51.2% | viability, T/C [8] 45% | viability, T/C (second compound 1 µM, first compound 0.000316 µM) 44% | viability, T/C (second compound 1 µM, first compound 0.001 µM) 47.5% | viability, T/C [35] 45.7% | viability, T/C [36] 43.7% | viability, T/C [13] 42% | viability, T/C [14] 38% | viability, T/C (second compound 3.16 µM, first compound 0.000316 µM) 34.4% | viability, T/C (second compound 3.16 µM, first compound 0.001 µM) 32% | viability, T/C [37] 30.1% | viability, T/C [38] 28.2% | viability, T/C [19] 24.4% | viability, T/C [20] 21% | viability, T/C (second compound 10 µM, first compound 0.000316 µM) 29.3% | viability, T/C (second compound 10 µM, first compound 0.001 µM) 23.2% | viability, T/C [39] 20.8% | viability, T/C [40] 20.1% | viability, T/C [25] 18.7% | viability, T/C [26] 17.2%
35.9 nM: IC50 (second compound 0.316 µM)

CCNC(=O)CC1N=C(c2ccc(Cl)cc2)c2cc(OC)ccc2-n2c(C)nnc21 (stereo not given) + C=CC(=O)N1CCN(c2nc(=O)n(-c3c(C)ccnc3C(C)C)c3nc(-c4c(O)cccc4F)c(F)cc23)C(C)C1
51.8 nM: IC50 (second compound 1 µM)
< 31.6 nM: IC50 (second compound 10 µM)
111 nM: IC50 (second compound 3.16 µM)
116 nM: IC50 (second compound 0.1 µM)
135 nM: IC50 (second compound 0.316 µM)
inactive: viability, T/C [1] 54.6% | viability, T/C [2] 52.5% | viability, T/C [3] 35.9% | viability, T/C [4] 30.9% | viability, T/C [5] 30% | viability, T/C [6] 25.6% | viability, T/C [7] 51.5% | viability, T/C [8] 55.5% | viability, T/C [9] 40% | viability, T/C [10] 31% | viability, T/C [11] 28.6% | viability, T/C [12] 25.7% | viability, T/C [13] 51.3% | viability, T/C [14] 49.2% | viability, T/C [15] 40% | viability, T/C [16] 32.5% | viability, T/C [17] 27.6% | viability, T/C [18] 30.1% | viability, T/C [19] 57.1% | viability, T/C [20] 51.9% | viability, T/C [21] 35.5% | viability, T/C [22] 33.6% | viability, T/C [23] 28.3% | viability, T/C [24] 28.3% | viability, T/C [25] 46.4% | viability, T/C [26] 38.4% | viability, T/C [27] 27.7% | viability, T/C [28] 24.9% | viability, T/C [29] 20.1% | viability, T/C [30] 18.5%

Cn1nccc1Nc1nccc(-c2cc3c(s2)C(C)(C)N(CCN2CCOCC2)C3=O)n1 + CC1OCC2(CCN(c3cnc(Sc4ccnc(N)c4Cl)c(N)n3)CC2)C1N
806 nM: IC50 (second compound 0.1 µM)
active: viability, T/C [29] 9.11% | viability, T/C [30] 12.2%
< 31.6 nM: IC50 (second compound 1 µM) | IC50 (second compound 3.16 µM) | IC50 (second compound 10 µM)
102 nM: IC50 (second compound 0.316 µM)
inactive: viability, T/C [1] 66.1% | viability, T/C [2] 67.3% | viability, T/C [3] 55.8% | viability, T/C [4] 51% | viability, T/C [5] 35.9% | viability, T/C [6] 36.4% | viability, T/C [7] 56% | viability, T/C [8] 50.3% | viability, T/C [9] 36.2% | viability, T/C [10] 33.1% | viability, T/C [11] 33.6% | viability, T/C [12] 33.5% | viability, T/C [13] 32.9% | viability, T/C [14] 32.4% | viability, T/C [15] 27.4% | viability, T/C [16] 22% | viability, T/C [17] 23.3% | viability, T/C [18] 22.9% | viability, T/C [19] 17.4% | viability, T/C [20] 16% | viability, T/C [21] 13.9% | viability, T/C [22] 14.7% | viability, T/C [23] 14.7% | viability, T/C [24] 18.8% | viability, T/C [25] 14.4% | viability, T/C [26] 12.8% | viability, T/C [27] 9.42% | viability, T/C [28] 8.83%
